Data set [1] in a line: Dynamic vapor sorption (DVS) hygroscopicity test. The format is physicochemical. As to conditions: for hygroscopic weight gain (DVS curve): 25° C. and 80% RH. The source says:
In the present disclosure, the DVS test parameters are set as follows: [table]

The nature of data set [2]: Stability of crystal forms under stability test conditions (appearance, XRPD, HPLC). Type of data set: physicochemical. The settings on record: for Total impurities: HPLC. How it is done: The samples were placed under the stability conditions shown in the following table, sampling was performed at the corresponding time points, and the samples were subjected to appearance and XRPD tests. […] The stability results obtained are recorded in the following table. […] The samples were placed under the stability test conditions shown in the following table, sampling was performed at different time points, and the samples were subjected to the XRPD test. […] The samples were placed in an open state under the stability test conditions of 40° C./75% RH and 90% RH; and the samples were placed in a closed state at 60° C. in a light box (the test samples in the dark were placed in the same manner as the illumination test samples, and the treatment was performed in the dark). Sampling was performed at different time points, and the samples were subjected to the XRPD test. […] The samples were placed under the stability conditions shown in the following table, sampling was performed at the corresponding time points, and the samples were subjected to appearance and XRPD tests. […] The stability results obtained are recorded in the following table.

The nature of data set [3]: XRPD of residual solids in solubility test in biological media. The format is physicochemical. As to conditions: Water; 37° C.
Data set [4] in a line: Solubility in biological media at 37° C. (HPLC, pH).
Data set [5] in a line: Polymorph screening test, suspension method (crystal form by XRPD after stirring in solvent). The format is physicochemical. As to the method: (or 50° C.) for 3 days in the dark and centrifuged to remove the supernatant; the resulting precipitate was dried under vacuum (25° C., −0.1 MPa); and the resulting solid was collected and subjected to the XRPD test. The results are as follows:
(or 50° C./80° C.) for 3 days in the dark and centrifuged to remove the supernatant; and the resulting precipitate was dried under vacuum (25° C., −0.1 MPa).
(or 50° C.) for 3 days in the dark and centrifuged to remove the supernatant; and the resulting precipitate was dried under vacuum (25° C., −0.1 MPa).

Another data set relates to preclinical tumor model. The settings on record: preclinical tumor model studies; cited from earlier work.
The subject of data set [6] is multiple xenograft tumor models. The settings on record: cited from earlier work.
For data set [7], the system named is EGFRT790M-mutant NSCLC xenograft tumor models. The settings on record: cited from earlier work.
The conditions of data set [8]: in vivo; cited from earlier work.
Where [9] appears, read: 0 d, listed as Crystal form D of the compound represented by formula I.
[10] abbreviates: Illumination (1 ICH), 5 d and 10 d.

“And” between values parts separate entries of the source, which are not always exact repeats. Equal entries are not always repeated. Structures can show the parent of a compound that is named as a salt. A value given as a limit tells only on which side of the number the result lay.

`Cc1cc(Nc2ncc(Cl)c(Nc3ccccc3S(=O)(=O)C(C)C)n2)c(OC(C)C)cc1C1=CCN(C2CCOCC2)CC1` [crystal form D]: the “hygroscopic weight gain (DVS curve)” value in data set [1] was 0.14±0.005% and 0.14%. In addition, the XRPD entry in data set [2] (0 d) was “No significant change”; in data set [2] (25° C./60% RH, 10 d and 1 M), “No significant change”; in data set [2] (40° C./75% RH, 10 d and 1 M), “No significant change”; in data set [2] (60° C., 10 d and 1 M), “No significant change”; in [2] (90% RH, 10 d and 1 M), “No significant change”; in data set [2] (Illumination, 5 d and 10 d), “No significant change”. Moreover, in data set [2] (In the dark, 5 d and 10 d), the XRPD result is “No significant change”. For the same molecule, the Total impurities is given as 0.14% in data set [2] (setting [9]); 0.17% in data set [2] (25° C./60% RH, 1 M); 0.14% in data set [2] (25° C./60% RH, 10 d); 0.17% in [2] (40° C./75% RH, 1 M, listed as Crystal form D of the compound represented by formula I); 0.17% in data set [2] (40° C./75% RH, 10 d, listed as Crystal form D of the compound represented by formula I); 0.20% in data set [2] (60° C., 1 M, listed as Crystal form D of the compound represented by formula I). Also, the Total impurities is given as 0.17% in [2] (60° C., 10 d, listed as Crystal form D of the compound represented by formula I); 0.17% in [2] (90% RH, 1 M, listed as Crystal form D of the compound represented by formula I); 0.17% in [2] (90% RH, 10 d, listed as Crystal form D of the compound represented by formula I); 0.17% in [2] (Illumination, 5 d, listed as Crystal form D of the compound represented by formula I); 2.43% in data set [2] (Illumination, 10 d, listed as Crystal form D of the compound represented by formula I); 0.17% in data set [2] (In the dark, 5 d, listed as Crystal form D of the compound represented by formula I). Moreover, the Total impurities in data set [2] (In the dark, 10 d, listed as Crystal form D of the compound represented by formula I) is on record as 0.14%. The Appearance entry in data set [2] (setting [9]) is reported as “No significant change”; in data set [2] (25° C./60% RH, 10 d and 1 M), “No significant change”; in data set [2] (40° C./75% RH, 10 d and 1 M, listed as Crystal form D of the compound represented by formula I) it was “No significant change”; in data set [2] (60° C., 10 d and 1 M, listed as Crystal form D of the compound represented by formula I), “No significant change”; in data set [2] (90% RH, 10 d and 1 M, listed as Crystal form D of the compound represented by formula I) it was “No significant change”; in [2] (Illumination, 5 d and 10 d), “Color deepening”. Besides, the Appearance entry in data set [2] (In the dark, 5 d and 10 d, listed as Crystal form D of the compound represented by formula I) is “No significant change”.
For Maleate, in data set [3], the “XRPD results of residual solids” value is “Crystal form A”. Further, the Solubility was 20 µg/mL in data set [4] (FaSSIF-V2, 2 h); “<LOQ” in [4] (FaSSIF-V2, 24 h); 220 µg/mL in data set [4] (FeSSIF-V2, 2 h); 220 µg/mL in [4] (FeSSIF-V2, 24 h); 1390 µg/mL in data set [4] (SGF, 2 h); 1920 µg/mL in [4] (SGF, 24 h). In addition, the Solubility in [4] (Water, 2 h) came to 20 µg/mL; in data set [4] (Water, 24 h), 20 µg/mL.
For `Cc1cc(Nc2ncc(Cl)c(Nc3ccccc3S(=O)(=O)C(C)C)n2)c(OC(C)C)cc1C1=CCN(C2CCOCC2)CC1` [one equivalent of maleate crystal form A], in data set [1], the “hygroscopic weight gain (DVS curve)” value was 0.11±0.005% and 0.11%. Besides, in [1] (80% RH), the “hygroscopicity (DVS result in words)” value is recorded as “no hygroscopicity”. Also, in [1] (DVS), the “crystal form before and after the hygroscopic test” value is given as “did not change”. Besides, the “stability of crystal form in solvent, suspension method” value in [5] (ethanol, isopropanol, acetone, ethyl acetate, isopropyl acetate, methyl tert-butyl ether, dichloromethane, tetrahydrofuran, toluene, n-heptane, dioxane, methyl acetate, 2-methyltetrahydrofuran, cyclohexane, n-hexane, methyl ethyl ketone, or methyl isobutyl ketone) is “relatively good stability”. Besides, the “crystal form when stirred in solvent” value in data set [5] (same solvents as in b585 at 25-50° C.) was “remained stable”. The values for the Appearance entry in [2] (0 d) and in data set [2] (setting [10]) were “Pale yellow powder” and “Color deepening”, respectively. Besides, the “Crystal form (XRPD)” value in [2] (0 d) was “Maleate crystal form A”; in data set [2] (40° C./75% RH, 5 d, 10 d and 30 d), “Maleate crystal form A”; in [2] (60° C., 5 d, 10 d and 30 d), “Maleate crystal form A”; in [2] (90% RH, 5 d, 10 d and 30 d), “Maleate crystal form A”; in [2] (setting [10]), “Maleate crystal form A”; in data set [2] (In the dark, 5 d and 10 d) it was “Maleate crystal form A”. The Total impurities in [2] (0 d) is listed as 0.12%; in data set [2] (40° C./75% RH, 5 d), 0.16%; in data set [2] (40° C./75% RH, 10 d) it was 0.14%; in data set [2] (40° C./75% RH, 30 d), 0.29%; in data set [2] (60° C., 5 d), 0.16%; in [2] (60° C., 10 d), 0.21%. Besides, the Total impurities turned out to be 0.16% in [2] (60° C., 30 d); 0.14% in data set [2] (90% RH, 5 d); 0.25% in data set [2] (90% RH, 10 d); 0.26% in data set [2] (90% RH, 30 d); 0.26% in [2] (Illumination (1 ICH), 5 d); 0.65% in [2] (Illumination (1 ICH), 10 d). Also, the Total impurities turned out to be 0.12% in [2] (In the dark, 5 d) and 0.18% in data set [2] (In the dark, 10 d).
Turning to `Cc1cc(Nc2ncc(Cl)c(Nc3ccccc3S(=O)(=O)C(C)C)n2)c(OC(C)C)cc1C1=CCN(C2CCOCC2)CC1.Cl`, the “hygroscopic weight gain (DVS curve)” value in [1] was found to be 0.15%. Also, the Appearance entry is “Pale yellow powder” in data set [2] (0 d); “Color deepening” in [2] (40° C./75% RH, 30 d); “Color deepening” in [2] (90% RH, 30 d); “Color deepening” in data set [2] (setting [10]). Moreover, the Total impurities was 0.10% in data set [2] (0 d); 0.18% in data set [2] (40° C./75% RH, 5 d); 0.53% in data set [2] (40° C./75% RH, 10 d); 1.09% in data set [2] (40° C./75% RH, 30 d); 0.15% in data set [2] (60° C., 5 d); 0.23% in data set [2] (60° C., 10 d). In addition, the Total impurities in data set [2] (60° C., 30 d) was found to be 0.21%; in data set [2] (90% RH, 5 d) it was 0.17%; in [2] (90% RH, 10 d), 0.28%; in data set [2] (90% RH, 30 d) it was 0.41%; in [2] (Illumination (1 ICH), 5 d), 0.39%; in data set [2] (Illumination (1 ICH), 10 d), 0.51%. The Total impurities turned out to be 0.07% in [2] (In the dark, 5 d) and 0.16% in [2] (In the dark, 10 d).
Turning to `Cc1cc(Nc2ncc(Cl)c(Nc3ccccc3S(=O)(=O)C(C)C)n2)c(OC(C)C)cc1C1=CCN(C2CCOCC2)CC1` [APG-2449], the “resistance developed by the first-generation ALK inhibitor” value in the data set on preclinical tumor model was “can overcome resistance”. The anti-tumor activity entry in data set [6] was “exhibits anti-tumor activity”. For the same molecule, the “effect in combination with EGFR inhibitors (particularly AZD9291/osimertinib)” value in data set [7] is listed as “synergistic effect”. Moreover, the oral bioavailability result in data set [8] is given as “high oral bioavailability”.
Turning to `Cc1cc(Nc2ncc(Cl)c(Nc3ccccc3S(=O)(=O)C(C)C)n2)c(OC(C)C)cc1C1=CCN(C2CCOCC2)CC1` [one equivalent of succinate crystal form D], in data set [1], the “hygroscopic weight gain (DVS curve)” value was 0.19±0.005% and 0.19%. Also, in data set [5] (in solvents), the “stability of crystal form in solvents, succinate polymorph screening test” value is reported as “relatively good stability”. Moreover, in [5] (methanol, ethanol, acetonitrile, acetone, ethyl acetate, dichloromethane, water, n-heptane, dioxane, or mixed solvent of methanol, acetonitrile, or acetone with water, 40° C.), the “crystal form when stirred in solvent” value is “remained stable”. Also, the Total impurities is 0.73% in data set [2] (0 d); 0.74% in data set [2] (40° C./75% RH, 1 M); 0.74% in data set [2] (40° C./75% RH, 10 d); 0.71% in data set [2] (60° C., 1 M); 0.69% in [2] (60° C., 10 d); 0.96% in data set [2] (90% RH, 1 M). Besides, the Total impurities came to 0.73% in [2] (90% RH, 10 d); 0.86% in [2] (Illumination, 5 d); 0.98% in [2] (Illumination, 10 d). In [2] (Illumination, 5 d and 10 d), the Appearance result is recorded as “Color deepening”.
